Test results: US20250312300A1, “BRIDGED BICYCLIC CARBOXYLIC ACIDS FOR TREATING OSTEOSARCOMA AND EWING SARCOMA” (UEA ENTERPRISES LIMITED, priority 2022, published 2025)
Entries after “also recorded” stand apart in the source; their conditions may differ.

How the values were obtained:
osteosarcoma = conditions: at 18 weeks of treatment, PMID: 33580363; cited from earlier work
[1] = system: osteosarcoma and Ewing sarcoma; conditions: PMID: 20068084; cited from earlier work
143B (human OS) cells = assay: Proliferation assay (WST-1), OS cells; format: cell-based; conditions: 100 μM CADD522, 72 h, WST-1, relative to control
Procedure: (§1) Cell lines. 143B (human OS) and TC71 (human ES) cells were obtained from ATCC. Cells were authenticated by STR profiling and were cultured in DMEM/F-12 (Thermo Fisher Scientific) or IMDM (Thermo Fisher Scientific) containing 1% (v/v) insulin transferrin selenium, 10% (v/v) FBS and 1% (v/v) penicillin/streptomycin. Medium was refreshed every other day and cells were maintained at 37° C. in 5% CO2. For the animal experiments 143B and TC71 cells were modified by transfecting with the GFP-luciferase tagged LVP02 lentivirus (AMSBIO). Adding the luciferase tag had no effect on cell phenotype.
(§2) Proliferation assays. 1×10^3 cells in 100 μL of medium were seeded per well into 96-well plates. PBS was added to outer wells to prevent evaporation. All plates were incubated for 24 h at 37° C. in 5% CO2. 100 nM, 1 μM, 10 μM and 100 μM CADD522 were added from a stock concentration of 10 mM in DMSO and incubated for 72 h before measuring cell viability/proliferation using the WST-1 assay kit (Abcam) following manufacturer's instructions. Data was presented as relative to the control (appearing as −11 on x-axis), which is set to 100% viability. Experiments were performed in quadruplicates in three independent experiments.
(§3) Statistics. […] Data was tested for normality by D'Agostino Pearson Omnibus test and analysed in GraphPad Prism v9 with p=<0.05 regarded as significant. […]

TC71 (human ES) cells = assay: Proliferation assay (WST-1), ES cells; format: cell-based; conditions: 100 μM CADD522, 72 h, WST-1, relative to control
Procedure: as §1, §2, §3

143B+GFP-Luc (OS) cells = assay: PBC xenograft mouse model, OS; format: in vivo, BALB/c nude mice
Procedure: (§4) Mice. The University of Sheffield Animal Welfare and Ethics Committee approved the animal experiments. Experiments were performed under licence in accordance with the UK Home Office guidelines and under the Animals (Scientific Procedures) Act 1986. Six- to seven-week-old female BALB/c nude mice (Charles River Laboratories) were acclimatised for one week prior to in vivo study. Mice were housed with a 12 h light-dark cycle at 22° C. and had free access to 2018 Teklad global 18% protein rodent diet containing 1.01% calcium (Harlan) and water. Mice were anesthetised by isoflurane inhalation before implantation with 2.5×10^5 143B+GFP-Luc (OS) cells or 5×10^5 TC71+GFP-Luc (ES) cells in 20 μl PBS onto the tibial surface. Mice were matched by weight and initial IVIS signal and then randomly divided into groups (n=8 mice/group). CADD522 treatment commenced the day after tumours became visible. Mice received either vehicle control (PBS and DMSO) or CADD522 (25 mg/kg) by IP injection five times per week. Tumours were measured by callipers throughout the study twice per week blinded. Two perpendicular measurements were taken and volume calculated by the formula V=0.523×L×(S)^2 where L and S refer to the largest and smallest measurement. Mice were treated until the palpable tumour reached the permissible 12 mm diameter limit. At the end of the procedure ex vivo imaging of mouse internal organs was performed to detect metastasis. Prior to killing, mice were injected subcutaneously with 150 mg/kg XenoLight D-Luciferin substrate (Perkin Elmer) that was left to disperse for a minimum of 5 m. Dissected organs were then imaged using the IVIS Lumina II. Mice legs and lungs were dissected and fixed in 10% formalin for further analysis.
Micro-CT. Fixed tibiae were scanned using a SkyScan 1172 desktop micro-CT machine (Bruker) at 8 um resolution with the X-ray source operating at 50 kV, 200 uA and using a 0.5 mm aluminium filter. Images were captured every 0.7°. Scanned images were reconstructed using Skyscan NRecon software v1.6.9 (Bruker). The region of interest (ROI) for the total bone volume was selected to include both the tibia and fibula and was determined at the top of the bone as soon as the tibia enters the image to the lower point where the tibia and fibula meet.
Histology. Bones were fixed in neutral buffered formalin for 48 h after which they were transferred to 70% ethanol. Bones were then decalcified in 10% EDTA, embedded in paraffin and 5 μm sections produced. Sections were de-waxed in xylene, rehydrated through graded alcohols and stained in haematoxylin (VWR) and eosin. The sections were dehydrated through graded alcohols and coverslips were mounted in DPX and imaged using Olympus BX51 microscope (Olympus Life Sciences) and Pannoramic 250 Flash III slide scanner (3[…]).
Statistics. For statistical tests p=<0.05 was considered as statistically significant. Proliferation data is reported for each experimental repeat (n=3). Data was tested for normality by D'Agostino Pearson Omnibus test and analysed in GraphPad Prism v9 with p=<0.05 regarded as significant. A one-way ANOVA was used to identify any differences in proliferation across the concentration range tested compared to the untreated control. A post-hoc Dunnett's multiple comparison was then used to determine which concentration impacted proliferation compared to the untreated control. […]

TC71+GFP-Luc (ES) cells = assay: PBC xenograft mouse model, ES; format: in vivo, BALB/c nude mice
Procedure: as §4, with “Mice legs and lungs were dissected and fixed in 10% formalin for further analysis.” left out
Micro-CT. […] The region of interest (ROI) for the total bone volume was selected to include both the tibia and fibula and was determined at the top of the bone as soon as the tibia enters the image to the lower point where the tibia and fibula meet. […]
as §3

[2] = Observed toxicity in treated PBC model mice; format: in vivo; conditions: 25 mg/kg over the study period
Procedure: as §4, with “At the end of the procedure ex vivo imaging of mouse internal organs was performed to detect metastasis. Prior to killing, mice were injected subcutaneously with 150 mg/kg XenoLight D-Luciferin substrate (Perkin Elmer) that was left to disperse for a minimum of 5 m. Dissected organs were then imaged using the IVIS Lumina II. Mice legs and lungs were dissected and fixed in 10% formalin for further analysis.” left out

[3] = 25 mg/kg IP, compared to controls

pembrolizumab
clinical benefit (osteosarcoma): no patients had clinical benefit

C/C(=C\c1csc(C)n1)[C@@H]1C[C@@H]2O[C@]2(C)CCC[C@H](C)[C@H](O)[C@@H](C)C(=O)C(C)(C)[C@@H](O)CC(=O)N1 [ixabepilone]
clinical response [1]: no partial or complete responses were observed

O=C(O)C1C2C=CC(C2)C1C(=O)Nc1ccc(Cl)c(Cl)c1 (stereo not shown) [CADD522, 3-(N-(3,4-dichlorophenyl)carbamoyl)-5-norbornene-2-carboxylic acid]
OS cell viability/proliferation (143B (human OS) cells): cytotoxic effect; also recorded: significantly reduced cell proliferation
ES cell viability/proliferation (TC71 (human ES) cells): cytotoxic; also recorded: showed cell proliferation differences
metastasis-free survival, OS mice (143B+GFP-Luc (OS) cells; 25 mg/kg IP five times per week vs control, p=0.0091): significantly increased metastasis-free survival
overall survival, OS mice (143B+GFP-Luc (OS) cells; 25 mg/kg IP five times per week vs control, p=0.093): Half of OS mice receiving CADD522 treatment survived longer than the control group
OS tumour volume over time (143B+GFP-Luc (OS) cells; 25 mg/kg IP five times per week vs vehicle control, p=0.0072): significantly reduced tumour volume
histology (H&E) of OS tumours at endpoint (143B+GFP-Luc (OS) cells; [3]): more densely packed, generally more vascularised and more organised (arranged in chords)
bone volume difference, tumour bearing leg vs contralateral (CL) leg (micro-CT) (143B+GFP-Luc (OS) cells; OS mice, 25 mg/kg IP, in control mice difference significant (p=0.02)): no longer statistically significant
overall survival, ES mice (TC71+GFP-Luc (ES) cells; 25 mg/kg IP five times per week vs control, p=0.043): Significantly increased overall survival
ES tumour volume over time (TC71+GFP-Luc (ES) cells; 25 mg/kg IP five times per week vs vehicle control, p=0.0003): significantly reduced tumour volume
histology (H&E) of ES tumours at endpoint (TC71+GFP-Luc (ES) cells; [3]): generally more vascularised
observed toxicity in the animals [2]: no observed toxicity
